“And” between values parts separate entries of the source, which are not always exact repeats. Equal entries are not always repeated. Numbers after ± are expanded uncertainties.
Conditions: Liquid

CC(C)CCCCCCCOC(=O)c1ccccc1C(=O)OCCCCCCCC(C)C
Conditions	mass density, Vibrating tube method	viscosity, Falling or rolling sphere viscometry
333.15 K, 10000 kPa	944.8 ± 1.4 kg/m3 and 945.3 ± 1.4 kg/m3	–
333.15 K, 20000 kPa	951 ± 1.4 kg/m3 and 951.5 ± 1.4 kg/m3 and 950.9 ± 1.4 kg/m3	23.5 ± 1.9 mPa·s and 22.4 ± 1.8 mPa·s and 23.2 ± 1.9 mPa·s
333.15 K, 30000 kPa	956.7 ± 1.4 kg/m3 and 957.1 ± 1.4 kg/m3 and 956.6 ± 1.4 kg/m3	28.2 ± 2.3 mPa·s and 26.8 ± 2.2 mPa·s and 27.8 ± 2.3 mPa·s
333.15 K, 40000 kPa	962.1 ± 1.4 kg/m3 and 962.5 ± 1.4 kg/m3 and 962 ± 1.4 kg/m3	33.7 ± 2.7 mPa·s and 31.9 ± 2.6 mPa·s and 33.1 ± 2.7 mPa·s
333.15 K, 50000 kPa	967.2 ± 1.4 kg/m3 and 967.6 ± 1.4 kg/m3 and 967.1 ± 1.4 kg/m3	40 ± 3.2 mPa·s and 37.8 ± 3.1 mPa·s and 39.3 ± 3.2 mPa·s
333.15 K, 60000 kPa	972.1 ± 1.4 kg/m3 and 972.5 ± 1.4 kg/m3 and 972 ± 1.4 kg/m3	47.5 ± 3.8 mPa·s and 44.5 ± 3.6 mPa·s and 46.6 ± 3.8 mPa·s
333.15 K, 70000 kPa	976.7 ± 1.4 kg/m3 and 977.1 ± 1.4 kg/m3 and 976.6 ± 1.4 kg/m3	–
348.15 K, 100 kPa	927.9 ± 1.4 kg/m3 and 928.3 ± 1.4 kg/m3 and 927.7 ± 1.4 kg/m3	–
348.15 K, 1000 kPa	928.5 ± 1.4 kg/m3 and 929 ± 1.4 kg/m3 and 928.4 ± 1.4 kg/m3	–
348.15 K, 5000 kPa	931.4 ± 1.4 kg/m3 and 931.8 ± 1.4 kg/m3 and 931.2 ± 1.4 kg/m3	–
348.15 K, 10000 kPa	934.8 ± 1.4 kg/m3 and 935.3 ± 1.4 kg/m3 and 934.7 ± 1.4 kg/m3	–
348.15 K, 20000 kPa	941.3 ± 1.4 kg/m3 and 941.8 ± 1.4 kg/m3 and 941.2 ± 1.4 kg/m3	–
348.15 K, 30000 kPa	947.3 ± 1.4 kg/m3 and 947.8 ± 1.4 kg/m3	–
348.15 K, 40000 kPa	953 ± 1.4 kg/m3 and 953.5 ± 1.4 kg/m3 and 952.9 ± 1.4 kg/m3	–
348.15 K, 50000 kPa	958.4 ± 1.4 kg/m3 and 958.9 ± 1.4 kg/m3	–
348.15 K, 60000 kPa	963.6 ± 1.4 kg/m3 and 964 ± 1.4 kg/m3 and 963.5 ± 1.4 kg/m3	–
348.15 K, 70000 kPa	968.4 ± 1.4 kg/m3 and 968.8 ± 1.4 kg/m3 and 968.3 ± 1.4 kg/m3	–
353.15 K, 100 kPa	–	8.42 ± 0.68 mPa·s and 8.04 ± 0.65 mPa·s and 8.35 ± 0.68 mPa·s
353.15 K, 1000 kPa	–	8.54 ± 0.69 mPa·s and 8.16 ± 0.66 mPa·s and 8.48 ± 0.69 mPa·s
353.15 K, 5000 kPa	–	9.14 ± 0.74 mPa·s and 8.7 ± 0.7 mPa·s and 9.06 ± 0.73 mPa·s
353.15 K, 10000 kPa	–	9.92 ± 0.8 mPa·s and 9.43 ± 0.76 mPa·s and 9.83 ± 0.79 mPa·s
353.15 K, 20000 kPa	–	11.7 ± 0.9 mPa·s and 11 ± 0.9 mPa·s and 11.5 ± 0.9 mPa·s
353.15 K, 30000 kPa	–	13.7 ± 1.1 mPa·s and 12.9 ± 1 mPa·s and 13.5 ± 1.1 mPa·s
353.15 K, 40000 kPa	–	16 ± 1.3 mPa·s and 15.1 ± 1.2 mPa·s and 15.8 ± 1.3 mPa·s
353.15 K, 50000 kPa	–	18.5 ± 1.5 mPa·s and 17.5 ± 1.4 mPa·s and 18.3 ± 1.5 mPa·s
353.15 K, 60000 kPa	–	21.5 ± 1.7 mPa·s and 20.3 ± 1.6 mPa·s and 21.2 ± 1.7 mPa·s
373.15 K, 100 kPa	909.5 ± 10 kg/m3 and 910 ± 10 kg/m3 and 909.4 ± 10 kg/m3	5.05 ± 0.41 mPa·s and 4.8 ± 0.39 mPa·s and 5.09 ± 0.41 mPa·s
373.15 K, 1000 kPa	911 ± 10 kg/m3 and 911.6 ± 10 kg/m3	5.12 ± 0.41 mPa·s and 4.87 ± 0.39 mPa·s and 5.16 ± 0.42 mPa·s
373.15 K, 5000 kPa	914.3 ± 10 kg/m3 and 914.8 ± 10 kg/m3 and 914.2 ± 10 kg/m3	5.44 ± 0.44 mPa·s and 5.17 ± 0.42 mPa·s and 5.47 ± 0.44 mPa·s
373.15 K, 10000 kPa	918.1 ± 10 kg/m3 and 918.6 ± 10 kg/m3 and 918 ± 10 kg/m3	5.86 ± 0.47 mPa·s and 5.57 ± 0.45 mPa·s and 5.89 ± 0.47 mPa·s
373.15 K, 20000 kPa	925.3 ± 10 kg/m3 and 925.9 ± 10 kg/m3 and 925.2 ± 10 kg/m3	6.79 ± 0.55 mPa·s and 6.44 ± 0.52 mPa·s and 6.8 ± 0.55 mPa·s
373.15 K, 30000 kPa	931.9 ± 10 kg/m3 and 932.5 ± 10 kg/m3	7.83 ± 0.63 mPa·s and 7.42 ± 0.6 mPa·s
373.15 K, 40000 kPa	938.1 ± 10 kg/m3 and 938.7 ± 10 kg/m3	9 ± 0.73 mPa·s and 8.52 ± 0.69 mPa·s and 8.98 ± 0.72 mPa·s
373.15 K, 50000 kPa	943.9 ± 10 kg/m3 and 944.6 ± 10 kg/m3 and 944 ± 10 kg/m3	10.3 ± 0.8 mPa·s and 9.75 ± 0.79 mPa·s
373.15 K, 60000 kPa	949.5 ± 10 kg/m3 and 950.1 ± 10 kg/m3	11.7 ± 0.9 mPa·s and 11.1 ± 0.9 mPa·s
373.15 K, 70000 kPa	954.7 ± 10 kg/m3 and 955.2 ± 10 kg/m3 and 954.6 ± 10 kg/m3	–
398.15 K, 100 kPa	892.2 ± 10 kg/m3 and 892.8 ± 10 kg/m3	–
398.15 K, 1000 kPa	892.8 ± 10 kg/m3 and 893.5 ± 10 kg/m3 and 892.9 ± 10 kg/m3	–
398.15 K, 5000 kPa	896.4 ± 10 kg/m3 and 896.9 ± 10 kg/m3 and 896.3 ± 10 kg/m3	–
398.15 K, 10000 kPa	900.6 ± 10 kg/m3 and 901.1 ± 10 kg/m3 and 900.5 ± 10 kg/m3	–
398.15 K, 20000 kPa	908.6 ± 10 kg/m3 and 909.1 ± 10 kg/m3 and 908.5 ± 10 kg/m3	–
398.15 K, 30000 kPa	915.8 ± 10 kg/m3 and 916.4 ± 10 kg/m3	–
398.15 K, 40000 kPa	922.5 ± 10 kg/m3 and 923.2 ± 10 kg/m3 and 922.6 ± 10 kg/m3	–
398.15 K, 50000 kPa	928.8 ± 10 kg/m3 and 929.5 ± 10 kg/m3 and 928.9 ± 10 kg/m3	–
398.15 K, 60000 kPa	934.8 ± 10 kg/m3 and 935.5 ± 10 kg/m3 and 934.9 ± 10 kg/m3	–
398.15 K, 70000 kPa	940.4 ± 10 kg/m3 and 941 ± 10 kg/m3	–

Conditions	mass density, SVM3000 rotational viscometer	viscosity, Rotational Automated Viscometer
333.15 K	938.7 ± 13 kg/m3 and 938.3 ± 13 kg/m3	15.79 ± 0.33 mPa·s and 16.02 ± 0.32 mPa·s and 15.97 ± 0.32 mPa·s
338.15 K	935.1 ± 13 kg/m3 and 934.7 ± 13 kg/m3	13.21 ± 0.27 mPa·s and 13.4 ± 0.27 mPa·s and 13.36 ± 0.27 mPa·s
343.15 K	931.6 ± 13 kg/m3 and 931.1 ± 13 kg/m3	11.18 ± 0.23 mPa·s and 11.34 ± 0.23 mPa·s and 11.31 ± 0.23 mPa·s
348.15 K	928 ± 13 kg/m3 and 927.6 ± 13 kg/m3	9.561 ± 0.2 mPa·s and 9.696 ± 0.2 mPa·s and 9.685 ± 0.19 mPa·s
353.15 K	924.4 ± 13 kg/m3 and 924.1 ± 13 kg/m3	8.257 ± 0.17 mPa·s and 8.376 ± 0.17 mPa·s and 8.37 ± 0.17 mPa·s
358.15 K	920.7 ± 13 kg/m3 and 920.9 ± 13 kg/m3 and 920.6 ± 13 kg/m3	7.193 ± 0.15 mPa·s and 7.3 ± 0.15 mPa·s and 7.297 ± 0.15 mPa·s
363.15 K	917.2 ± 13 kg/m3 and 917.4 ± 13 kg/m3 and 917 ± 13 kg/m3	6.329 ± 0.13 mPa·s and 6.414 ± 0.13 mPa·s and 6.412 ± 0.13 mPa·s
368.15 K	913.7 ± 13 kg/m3 and 913.9 ± 13 kg/m3 and 913.5 ± 13 kg/m3	5.602 ± 0.12 mPa·s and 5.677 ± 0.11 mPa·s and 5.675 ± 0.11 mPa·s
373.15 K	910.3 ± 13 kg/m3 and 910.5 ± 13 kg/m3 and 910 ± 13 kg/m3	4.989 ± 0.1 mPa·s and 5.059 ± 0.1 mPa·s and 5.057 ± 0.1 mPa·s
